Measurements published in patent US20220184075A1, “PHARMACEUTICAL COMPOSITION CONTAINING HDAC6 INHIBITOR AS ACTIVE INGREDIENT FOR PREVENTION OR TREATMENT OF ITCHING” (BNH RESEARCH CO.,LTD., priority 2018, published 2022).

Assays:
HDAC6 = biological target: T1, HDAC6 (Homo sapiens, UniProt Q9UBN7); conditions: cited from earlier work; for Selectivity: HDAC6 inhibitor selectivity, in words; for IC50: HDAC6 inhibitor
T1 sequence (Q9UBN7 1-1215): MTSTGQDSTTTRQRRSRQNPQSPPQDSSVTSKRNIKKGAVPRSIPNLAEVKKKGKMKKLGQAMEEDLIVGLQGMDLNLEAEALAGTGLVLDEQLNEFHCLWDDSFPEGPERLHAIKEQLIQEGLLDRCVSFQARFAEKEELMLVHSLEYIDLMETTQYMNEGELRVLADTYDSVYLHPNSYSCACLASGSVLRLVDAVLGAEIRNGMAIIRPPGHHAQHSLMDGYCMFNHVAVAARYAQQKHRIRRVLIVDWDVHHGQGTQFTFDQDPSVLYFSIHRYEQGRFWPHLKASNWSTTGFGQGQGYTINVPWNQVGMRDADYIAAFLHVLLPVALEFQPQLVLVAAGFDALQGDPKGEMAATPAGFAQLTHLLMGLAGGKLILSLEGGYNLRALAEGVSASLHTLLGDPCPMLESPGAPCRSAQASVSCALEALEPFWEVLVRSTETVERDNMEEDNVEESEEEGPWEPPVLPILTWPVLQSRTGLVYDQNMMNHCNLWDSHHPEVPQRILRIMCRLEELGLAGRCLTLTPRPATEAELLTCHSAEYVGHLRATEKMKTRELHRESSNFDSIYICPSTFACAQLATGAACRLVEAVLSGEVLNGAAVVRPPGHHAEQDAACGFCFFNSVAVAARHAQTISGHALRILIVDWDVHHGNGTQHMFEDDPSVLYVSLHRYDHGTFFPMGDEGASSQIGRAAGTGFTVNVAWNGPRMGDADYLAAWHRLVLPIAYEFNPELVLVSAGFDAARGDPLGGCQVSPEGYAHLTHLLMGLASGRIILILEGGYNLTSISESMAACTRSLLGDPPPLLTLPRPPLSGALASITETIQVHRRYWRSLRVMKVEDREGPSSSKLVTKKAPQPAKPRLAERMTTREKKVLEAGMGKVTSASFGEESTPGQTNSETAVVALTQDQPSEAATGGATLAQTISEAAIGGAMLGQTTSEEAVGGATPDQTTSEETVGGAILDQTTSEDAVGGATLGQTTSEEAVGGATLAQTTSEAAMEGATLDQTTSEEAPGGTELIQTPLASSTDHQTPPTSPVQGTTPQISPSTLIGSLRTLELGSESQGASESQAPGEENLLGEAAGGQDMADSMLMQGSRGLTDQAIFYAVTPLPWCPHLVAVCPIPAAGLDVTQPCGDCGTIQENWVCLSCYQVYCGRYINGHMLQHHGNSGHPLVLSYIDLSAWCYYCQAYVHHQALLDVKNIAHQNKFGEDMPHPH

[1] = tested on: trypsin-induced itching (scratching behavior); experiment: Trypsin-induced scratching behavior in mice (cheek injection, bouts counted for 30 minutes); format: in vivo, Male C57BL/6 mice; conditions: for number of scratching bouts compared with the only trypsin-injected mice: co-injected with 200 μg trypsin into skin of shaved right cheek, 30 minutes, 7.4 μg tubastatin A HCl or 61.4 ng M344, unpaired t-test
Protocol: Male C57BL/6 mice (6-week-old) were divided into groups of 3 to 5 animals, and isolated under a 12-hour light/dark cycle while being allowed to freely access water and food. Trypsin is diluted in phosphate buffered saline (PBS) to have the working concentration. […] All drug-containing stock solutions were stored in a freezer at −20 □, dissolved immediately prior to the behavioral experiment, and diluted with PBS to the final working concentration. For behavioral experiments, the right cheek of all mice was shaved, and the drug was injected after the acclimation period in an observation chamber for 2 days (2 hours/day) prior to the experiment date and 1 hour on the day of the experiment. The mice were subdued by being gently grabbed by a hand without anesthesia for drug treatment. All drugs were injected into the skin layer of the shaved right cheek at 20 μL using a 31-G insulin syringe. After returning to the observation chamber, all mice were videotaped for 30 minutes immediately after drug injection to evaluate itching behavior. For the behavioral experiment, the action of scratching the drug-injected site with a hind leg, and then placing the leg on the ground again or licking the site with a mouth was counted as 1 bout. All behavioral experiments were evaluated by testers in a blinded drug test. Statistical analysis for the experiments was performed using an unpaired t-test, and P<0.05 or P<0.01 was considered statistically significant (*: P<0.05; **: P<0.01). Data was expressed as mean±standard error (SEM).

Compound | Selectivity (HDAC6) | IC50 (HDAC6) | scratching bouts for 30 minutes ([1]; 200 μg trypsin alone injected into cheek skin of normal mice, FIG. 1) | number of scratching bouts compared with the only trypsin-injected mice [1]
O=C(NO)c1cnc(NC2(c3cccc(F)c3)CCCCC2)nc1 [ACY-775] | Very high | 7.5 nM |  | 
trypsin |  |  | approximately 100 bouts | 
CN1CCc2c(c3ccccc3n2Cc2ccc(C(=O)NO)cc2)C1 [Tubastatin A, tubastatin A] |  |  |  | statistically significant smaller number of scratching bouts
O=C(NO)C1=CCCC1 [BRD9757] | Very high | 30 nM |  | 
CN(C)c1ccc(C(=O)NCCCCCCC(=O)NO)cc1 [M344] | High | 88 nM |  | statistically significant smaller number of scratching bouts
